Experimental data as given in PubChem BioAssay (NCI).
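All cell lines were grown in 96-well plates and treated with compound for 48 hours. GI50 marks 50% less growth. TGI marks complete inhibition of growth.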

Assays:
Assay in all cases: growth of human tumour cells (NCI), 48 h
RPMI-8226 leukemia = tested on: RPMI-8226 leukemia
SK-OV-3 ovarian = tested on: SK-OV-3 ovarian
CAKI-1 renal = tested on: CAKI-1 renal
OVCAR-5 ovarian = tested on: OVCAR-5 ovarian
MOLT-4 leukemia = tested on: MOLT-4 leukemia
IGROV1 ovarian = tested on: IGROV1 ovarian
SNB-75 CNS = tested on: SNB-75 CNS
EKVX NSCLC = tested on: EKVX NSCLC
HCT-15 colon = tested on: HCT-15 colon
BT-549 breast = tested on: BT-549 breast

Row | SMILES | GI50 (RPMI-8226 leukemia) [µM] | TGI (RPMI-8226 leukemia) [µM] | GI50 (SK-OV-3 ovarian) [µM] | TGI (SK-OV-3 ovarian) [µM] | GI50 (CAKI-1 renal) [µM] | TGI (CAKI-1 renal) [µM] | GI50 (OVCAR-5 ovarian) [µM] | TGI (OVCAR-5 ovarian) [µM] | GI50 (MOLT-4 leukemia) [µM] | TGI (MOLT-4 leukemia) [µM] | GI50 (IGROV1 ovarian) [µM] | TGI (IGROV1 ovarian) [µM] | GI50 (SNB-75 CNS) [µM] | TGI (SNB-75 CNS) [µM] | GI50 (EKVX NSCLC) [µM] | TGI (EKVX NSCLC) [µM] | GI50 (HCT-15 colon) [µM] | TGI (HCT-15 colon) [µM] | GI50 (BT-549 breast) [µM] | TGI (BT-549 breast) [µM]
1 | COc1cc(OC)c(C(=O)/C=C/c2ccc(C#N)cc2)c(OC)c1 | 1.29 | 4.92 | 2.05 | > 50 | 1.73 | 8.78 | 2.13 | 8.4 | 1.44 | 13 | 1.56 | 7.75 | 1.27 | 6.62 | 2.07 | > 50 | 1.05 | 4.19 | 1.3 | 5.11
2 | Oc1nc(N2CCOCC2)sc1/C=C1\C=Nc2ccccc21 | > 100 | > 100 | > 100 | > 100 | > 100 | > 100 | > 100 | > 100 | > 100 | > 100 | > 100 | > 100 | 64.8 | > 100 | > 100 | > 100 | > 100 | > 100 | > 100 | > 100
3 | Cc1[nH]c2ccccc2c1CO | 26.9 | > 100 | 35.1 | > 100 | 14.9 | 42.2 | 24.4 | 96.9 | 25.1 | 91.6 | – | – | 7.33 | 39.3 | 20.9 | 70.7 | 18.5 | 93.2 | 18.4 | 40.3
4 | O=C(Nc1ccc(I)cc1F)c1cc(Br)ccc1O | 0.321 | 1.63 | 0.681 | 2.92 | 0.308 | 2.34 | 4.01 | > 100 | 1.39 | 5.6 | 0.412 | > 100 | 0.451 | 2.23 | 1.04 | 7.22 | 0.743 | 6.72 | 0.37 | 1.76
5 | CCOC(=O)c1c(NN2CCN(CC(F)(F)F)CC2)oc(/C=C2\C=Nc3ncccc32)c1O | 4.25 | 20.7 | 2.93 | 19.8 | 1.08 | 13.5 | 19.3 | 67.5 | 2.79 | 9.37 | 7.43 | 47.8 | 0.325 | 11.6 | 11.1 | 33.2 | 6.59 | 46.7 | 1.59 | 5.68
6 | COc1cc2c3c(n(CCCN=[N+]=[N-])c(=O)c2cc1OC)-c1ccccc1C3=O | 6.19 | > 100 | > 100 | > 100 | 2.13 | 7.77 | – | – | 0.702 | 3.38 | – | – | 2.53 | 8.49 | > 100 | > 100 | 27.4 | > 100 | 24.4 | > 100
